{
  "source": "paper PMC7403827",
  "about": "(Clinical and Translational Medicine, 2020)",
  "assay": "Adverse events (CTCAE 4.0) under apatinib plus gefitinib",
  "type": "in vivo, human",
  "details": "Apatinib 250 mg Cohort (n = 7), with gefitinib 250 mg; treatment‐related AE, patients (%)",
  "data": [
    {"smiles": "N#CC1(c2ccc(NC(=O)c3cccnc3NCc3ccncc3)cc2)CCCC1", "note": "[Apatinib]", "values": [
      {"measurement": "Abdominal distention, ALL", "value": "2 (28.6%)"},
      {"measurement": "Abdominal distention, Grade 1–2", "value": "2 (28.6%)"},
      {"measurement": "Abdominal distention, Grade 3–4", "value": 0},
      {"measurement": "Blurred vision, ALL", "value": 0},
      {"measurement": "Blurred vision, Grade 1–2", "value": 0},
      {"measurement": "Blurred vision, Grade 3–4", "value": 0},
      {"measurement": "Cough, ALL", "value": "4 (57.1%)"},
      {"measurement": "Cough, Grade 1–2", "value": "4 (57.1%)"},
      {"measurement": "Cough, Grade 3–4", "value": 0},
      {"measurement": "Diarrhea, ALL", "value": "5 (71.4%)"},
      {"measurement": "Diarrhea, Grade 1–2", "value": "5 (71.4%)"},
      {"measurement": "Diarrhea, Grade 3–4", "value": 0},
      {"measurement": "Dizziness, ALL", "value": 0},
      {"measurement": "Dizziness, Grade 1–2", "value": 0},
      {"measurement": "Dizziness, Grade 3–4", "value": 0},
      {"measurement": "Dry skin, ALL", "value": "2 (28.6%)"},
      {"measurement": "Dry skin, Grade 1–2", "value": "2 (28.6%)"},
      {"measurement": "Dry skin, Grade 3–4", "value": 0},
      {"measurement": "Dysgeusia, ALL", "value": "1 (14.3%)"},
      {"measurement": "Dysgeusia, Grade 1–2", "value": "1 (14.3%)"},
      {"measurement": "Dysgeusia, Grade 3–4", "value": 0},
      {"measurement": "Eczema, ALL", "value": "1 (14.3%)"},
      {"measurement": "Eczema, Grade 1–2", "value": "1 (14.3%)"},
      {"measurement": "Eczema, Grade 3–4", "value": 0},
      {"measurement": "Elevated ALT, ALL", "value": "3 (42.9%)"},
      {"measurement": "Elevated ALT, Grade 1–2", "value": "2 (28.6%)"},
      {"measurement": "Elevated ALT, Grade 3–4", "value": "1 (14.3%)"},
      {"measurement": "Elevated AST, ALL", "value": "2 (28.6%)"},
      {"measurement": "Elevated AST, Grade 1–2", "value": "1 (14.3%)"},
      {"measurement": "Elevated AST, Grade 3–4", "value": "1 (14.3%)"},
      {"measurement": "Epistaxis, ALL", "value": "3 (42.9%)"},
      {"measurement": "Epistaxis, Grade 1–2", "value": "3 (42.9%)"},
      {"measurement": "Epistaxis, Grade 3–4", "value": 0},
      {"measurement": "Fatigue, ALL", "value": "2 (28.6%)"},
      {"measurement": "Fatigue, Grade 1–2", "value": "2 (28.6%)"},
      {"measurement": "Fatigue, Grade 3–4", "value": 0},
      {"measurement": "Gastrointestinal bleeding, ALL", "value": "1 (14.3%)"},
      {"measurement": "Gastrointestinal bleeding, Grade 1–2", "value": "1 (14.3%)"},
      {"measurement": "Gastrointestinal bleeding, Grade 3–4", "value": 0},
      {"measurement": "HFSR, ALL", "value": "2 (28.6%)"},
      {"measurement": "HFSR, Grade 1–2", "value": "2 (28.6%)"},
      {"measurement": "HFSR, Grade 3–4", "value": 0},
      {"measurement": "Haematuria, ALL", "value": "1 (14.3%)"},
      {"measurement": "Haematuria, Grade 1–2", "value": "1 (14.3%)"},
      {"measurement": "Haematuria, Grade 3–4", "value": 0},
      {"measurement": "Headache, ALL", "value": "1 (14.3%)"},
      {"measurement": "Headache, Grade 1–2", "value": "1 (14.3%)"},
      {"measurement": "Headache, Grade 3–4", "value": 0},
      {"measurement": "Hematochezia, ALL", "value": "1 (14.3%)"},
      {"measurement": "Hematochezia, Grade 1–2", "value": "1 (14.3%)"},
      {"measurement": "Hematochezia, Grade 3–4", "value": 0},
      {"measurement": "Hypertension, ALL", "value": "5 (71.4%)"},
      {"measurement": "Hypertension, Grade 1–2", "value": "4 (57.1%)"},
      {"measurement": "Hypertension, Grade 3–4", "value": "1 (14.3%)"},
      {"measurement": "Increased bilirubin, ALL", "value": "1 (14.3%)"},
      {"measurement": "Increased bilirubin, Grade 1–2", "value": "1 (14.3%)"},
      {"measurement": "Increased bilirubin, Grade 3–4", "value": 0},
      {"measurement": "Increased creatinine, ALL", "value": 0},
      {"measurement": "Increased creatinine, Grade 1–2", "value": 0},
      {"measurement": "Increased creatinine, Grade 3–4", "value": 0},
      {"measurement": "Leukopenia, ALL", "value": 0},
      {"measurement": "Leukopenia, Grade 1–2", "value": 0},
      {"measurement": "Leukopenia, Grade 3–4", "value": 0},
      {"measurement": "Nausea, ALL", "value": 0},
      {"measurement": "Nausea, Grade 1–2", "value": 0},
      {"measurement": "Nausea, Grade 3–4", "value": 0},
      {"measurement": "Neutropenia, ALL", "value": 0},
      {"measurement": "Neutropenia, Grade 1–2", "value": 0},
      {"measurement": "Neutropenia, Grade 3–4", "value": 0},
      {"measurement": "Oulorrhagia, ALL", "value": "3 (42.9%)"},
      {"measurement": "Oulorrhagia, Grade 1–2", "value": "3 (42.9%)"},
      {"measurement": "Oulorrhagia, Grade 3–4", "value": 0},
      {"measurement": "Paronychia, ALL", "value": "1 (14.3%)"},
      {"measurement": "Paronychia, Grade 1–2", "value": "1 (14.3%)"},
      {"measurement": "Paronychia, Grade 3–4", "value": 0},
      {"measurement": "Periodontitis, ALL", "value": "1 (14.3%)"},
      {"measurement": "Periodontitis, Grade 1–2", "value": "1 (14.3%)"},
      {"measurement": "Periodontitis, Grade 3–4", "value": 0},
      {"measurement": "Pharyngalgia, ALL", "value": "1 (14.3%)"},
      {"measurement": "Pharyngalgia, Grade 1–2", "value": "1 (14.3%)"},
      {"measurement": "Pharyngalgia, Grade 3–4", "value": 0},
      {"measurement": "Pneumonia (non‐interstitial), ALL", "value": "1 (14.3%)"},
      {"measurement": "Pneumonia (non‐interstitial), Grade 1–2", "value": "1 (14.3%)"},
      {"measurement": "Pneumonia (non‐interstitial), Grade 3–4", "value": 0},
      {"measurement": "Proteinuria, ALL", "value": "3 (42.9%)"},
      {"measurement": "Proteinuria, Grade 1–2", "value": "2 (28.6%)"},
      {"measurement": "Proteinuria, Grade 3–4", "value": "1 (14.3%)"},
      {"measurement": "Pruritus, ALL", "value": 0},
      {"measurement": "Pruritus, Grade 1–2", "value": 0},
      {"measurement": "Pruritus, Grade 3–4", "value": 0},
      {"measurement": "Rash, ALL", "value": "5 (71.4%)"},
      {"measurement": "Rash, Grade 1–2", "value": "5 (71.4%)"},
      {"measurement": "Rash, Grade 3–4", "value": 0},
      {"measurement": "Stomatitis, ALL", "value": "2 (28.6%)"},
      {"measurement": "Stomatitis, Grade 1–2", "value": "2 (28.6%)"},
      {"measurement": "Stomatitis, Grade 3–4", "value": 0},
      {"measurement": "Thrombocytopenia, ALL", "value": 0},
      {"measurement": "Thrombocytopenia, Grade 1–2", "value": 0},
      {"measurement": "Thrombocytopenia, Grade 3–4", "value": 0},
      {"measurement": "Trachyphonia, ALL", "value": "2 (28.6%)"},
      {"measurement": "Trachyphonia, Grade 1–2", "value": "2 (28.6%)"},
      {"measurement": "Trachyphonia, Grade 3–4", "value": 0},
      {"measurement": "Vomiting, ALL", "value": 0},
      {"measurement": "Vomiting, Grade 1–2", "value": 0},
      {"measurement": "Vomiting, Grade 3–4", "value": 0}
    ]}
  ]
}
